Measured values taken from patent US20250026778A1 (TIUMBIO CO., LTD., priority 2021, published 2025).
Read-outs that look alike come from different tables or passages of the source.

Target: T1, his-galectin-3 (Homo sapiens, UniProt P17931)
T1 construct: purchased Abcam
Assay: TR-FRET assay (in vitro galectin-3 binding inhibitory activity test)
Conditions: compound at 20 μM, 60 nM his-galectin-3, 15 nM biotin-ASF
How it was run: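 Compound is premixed with his-galectin-3 (60 nM final), then biotin-ASF (15 nM), Tb anti-His antibody (2 nM) and streptavidin-d2 (20 nM) are added. After at least 3.5 hours at RT in HEPES/NaCl buffer with Tween 20 and BSA, TR-FRET is read at 615/665 nm. DMSO serves as the uninhibited control, ASF omission as background.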

[1] = Table 2, read-out: % Inhibitory activity (at 20 μM)
[2] = Table 3, found values, read-out: % Inhibitory activity (at 20 μM)

T1 sequence (P17931 whole entry): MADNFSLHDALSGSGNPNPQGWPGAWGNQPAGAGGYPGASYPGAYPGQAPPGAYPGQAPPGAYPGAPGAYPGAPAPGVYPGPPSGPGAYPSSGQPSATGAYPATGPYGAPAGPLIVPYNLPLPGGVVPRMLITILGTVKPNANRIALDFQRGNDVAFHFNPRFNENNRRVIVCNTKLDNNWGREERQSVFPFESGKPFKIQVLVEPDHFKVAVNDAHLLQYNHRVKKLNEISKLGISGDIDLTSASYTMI

Row | Structure (SMILES) | inhibition at 20 µM [1] [%] | inhibition at 20 µM [2] [%] | inhibition at 20 µM (read-out: % Inhibitory activity (at 20 μM), Table 2) [%]
1 | OC[C@H]1O[C@]2(OCC[C@H]2Nc2ccccc2)[C@H](O)[C@@H](n2cc(-c3cc(F)c(F)c(F)c3)nn2)[C@H]1O [Compound A206, (4R,5S,7R,8R,9S,10R)-7-(hydroxymethyl)-4-(phenylamino)-9-(4-(3,4,5-trifluorophenyl)-1H-1,2,3-triazol-1-yl)-1,6-dioxaspiro[4.5]decane-8,10-diol] | > 75 | – | –
2 | O=C(N[C@@H]1CCO[C@]12O[C@H](CO)[C@H](O)[C@H](n1cc(-c3cc(F)c(F)c(F)c3)nn1)[C@H]2O)c1ccnc2ccccc12 [Compound A207, N-((4R,5S,7R,8R,9S,10R)-8,10-dihydroxy-7-(hydroxymethyl)-9-(4-(3,4,5-trifluorophenyl)-1H-1,2,3-triazol-1-yl)-1,6-dioxaspiro[4.5]decan-4-yl)quinoline-4-carboxamide] | > 75 | – | –
3 | O=C(N[C@@H]1CCO[C@]12O[C@H](CO)[C@H](O)[C@H](n1cc(-c3cc(F)c(F)c(F)c3)nn1)[C@H]2O)c1cccc2ncc(Br)cc12 [Compound A208, 3-bromo-N-((4R,5S,7R,8R,9S,10R)-8,10-dihydroxy-7-(hydroxymethyl)-9-(4-(3,4,5-trifluorophenyl)-1H-1,2,3-triazol-1-yl)-1,6-dioxaspiro[4.5]decan-4-yl)quinoline-5-carboxamide] | > 75 | – | –
4 | O=C(N[C@@H]1CCO[C@]12O[C@H](CO)[C@H](O)[C@H](n1cc(-c3cc(F)c(F)c(F)c3)nn1)[C@H]2O)c1ccnc2ccc(Br)cc12 [Compound A209, 6-bromo-N-((4R,5S,7R,8R,9S,10R)-8,10-dihydroxy-7-(hydroxymethyl)-9-(4-(3,4,5-trifluorophenyl)-1H-1,2,3-triazol-1-yl)-1,6-dioxaspiro[4.5]decan-4-yl)quinoline-4-carboxamide] | > 75 | – | –
5 | O=C(N[C@@H]1CCO[C@]12O[C@H](CO)[C@H](O)[C@H](n1cc(-c3cc(F)c(F)c(F)c3)nn1)[C@H]2OCc1nn[nH]n1)c1ccc(F)c2ccccc12 [Compound A210, N-((4R,5S,7R,8R,9S,10R)-10-((2H-tetrazol-5-yl)methoxy)-8-hydroxy-7-(hydroxymethyl)-9-(4-(3,4,5-trifluorophenyl)-1H-1,2,3-triazol-1-yl)-1,6-dioxaspiro[4.5]decan-4-yl)-4-fluoro-1-naphthamide] | > 75 | 90.6 | –
6 | O=C(N[C@@H]1CCO[C@]12O[C@H](CO)[C@H](O)[C@H](n1cc(-c3cc(F)c(F)c(F)c3)nn1)[C@H]2O)c1cccc2ccc(Br)cc12 [Compound A211, 7-bromo-N-((4R,5S,7R,8R,9S,10R)-8,10-dihydroxy-7-(hydroxymethyl)-9-(4-(3,4,5-trifluorophenyl)-1H-1,2,3-triazol-1-yl)-1,6-dioxaspiro[4.5]decan-4-yl)-1-naphthamide] | > 75 | – | –
7 | O=C(N[C@@H]1CCO[C@]12O[C@H](CO)[C@H](O)[C@H](n1cc(-c3cc(F)c(F)c(F)c3)nn1)[C@H]2O)c1cccc2ncccc12 [Compound A212, N-((4R,5S,7R,8R,9S,10R)-8,10-dihydroxy-7-(hydroxymethyl)-9-(4-(3,4,5-trifluorophenyl)-1H-1,2,3-triazol-1-yl)-1,6-dioxaspiro[4.5]decan-4-yl)quinoline-5-carboxamide] | > 75 | – | –
8 | O=C(N[C@@H]1CCO[C@]12O[C@H](CO)[C@H](O)[C@H](n1cc(-c3cc(F)c(F)c(F)c3)nn1)[C@H]2O)c1ccc(Br)c2ncccc12 [Compound A213, 8-bromo-N-((4R,5S,7R,8R,9S,10R)-8,10-dihydroxy-7-(hydroxymethyl)-9-(4-(3,4,5-trifluorophenyl)-1H-1,2,3-triazol-1-yl)-1,6-dioxaspiro[4.5]decan-4-yl)quinoline-5-carboxamide] | 50 to 75 | – | –
9 | CC1CO[C@@]2(C1)O[C@H](CO)[C@H](O)[C@H](n1cc(-c3cc(F)c(F)c(F)c3)nn1)[C@H]2O (stereo partly drawn) [Compound A214, (5S,7R,8R,9S,10R)-7-(hydroxymethyl)-3-methyl-9-(4-(3,4,5-trifluorophenyl)-1H-1,2,3-triazol-1-yl)-1,6-dioxaspiro[4.5]decane-8,10-diol] | 50 to 75 | – | –
10 | O=C(Nc1cccc(Cl)c1)N[C@@H]1CCO[C@]12O[C@H](CO)[C@H](O)[C@H](n1cc(-c3cc(F)c(F)c(F)c3)nn1)[C@H]2O [Compound A215, 1-(3-chlorophenyl)-3-((4R,5S,7R,8R,9S,10R)-8,10-dihydroxy-7-(hydroxymethyl)-9-(4-(3,4,5-trifluorophenyl)-1H-1,2,3-triazol-1-yl)-1,6-dioxaspiro[4.5]decan-4-yl)urea] | > 75 | – | –
11 | O=C(N[C@@H]1CCO[C@]12O[C@H](CO)[C@H](O)[C@H](n1cc(-c3cc(F)c(F)c(F)c3)nn1)[C@H]2O)c1cccc2ncc(F)cc12 [Compound A216, N-((4R,5S,7R,8R,9S,10R)-8,10-dihydroxy-7-(hydroxymethyl)-9-(4-(3,4,5-trifluorophenyl)-1H-1,2,3-triazol-1-yl)-1,6-dioxaspiro[4.5]decan-4-yl)-3-fluoroquinoline-5-carboxamide] | > 75 | – | –
12 | O=C(N[C@@H]1CCO[C@]12O[C@H](CO)[C@H](O)[C@H](n1cc(-c3cc(F)c(F)c(F)c3)nn1)[C@H]2O)c1cccc2ncc(Cl)cc12 [Compound A217, 3-chloro-N-((4R,5S,7R,8R,9S,10R)-8,10-dihydroxy-7-(hydroxymethyl)-9-(4-(3,4,5-trifluorophenyl)-1H-1,2,3-triazol-1-yl)-1,6-dioxaspiro[4.5]decan-4-yl)quinoline-5-carboxamide] | > 75 | – | –
13 | Cc1oc2ccccc2c1C(=O)N[C@@H]1CCO[C@]12O[C@H](CO)[C@H](O)[C@H](n1cc(-c3cc(F)c(F)c(F)c3)nn1)[C@H]2O [Compound A218, N-((4R,5S,7R,8R,9S,10R)-8,10-dihydroxy-7-(hydroxymethyl)-9-(4-(3,4,5-trifluorophenyl)-1H-1,2,3-triazol-1-yl)-1,6-dioxaspiro[4.5]decan-4-yl)-2-methylbenzofuran-3-carboxamide] | > 75 | – | –
14 | O=C(N[C@@H]1CCO[C@]12O[C@H](CO)[C@H](O)[C@H](n1cc(-c3cc(F)c(F)c(F)c3)nn1)[C@H]2O)c1c[nH]c2ccc(Cl)cc12 [Compound A219, 5-chloro-N-((4R,5S,7R,8R,9S,10R)-8,10-dihydroxy-7-(hydroxymethyl)-9-(4-(3,4,5-trifluorophenyl)-1H-1,2,3-triazol-1-yl)-1,6-dioxaspiro[4.5]decan-4-yl)-1H-indole-3-carboxamide] | 50 to 75 | – | –
15 | OC[C@H]1O[C@@]2(CCCN(c3cccc4ccccc34)C2)[C@H](O)[C@@H](n2cc(-c3cc(F)c(F)c(F)c3)nn2)[C@H]1O [Compound A220, (2R,3R,4S,5R,6R)-2-(hydroxymethyl)-8-(naphthalen-1-yl)-4-(4-(3,4,5-trifluorophenyl)-1H-1,2,3-triazol-1-yl)-1-oxa-8-azaspiro[5.5]undecane-3,5-diol] | < 25 | – | –
16 | OC[C@H]1O[C@@]2(CCCN(c3ccccc3Cl)C2)[C@H](O)[C@@H](n2cc(-c3cc(F)c(F)c(F)c3)nn2)[C@H]1O [Compound A222, (2R,3R,4S,5R,6R)-8-(2-chlorophenyl)-2-(hydroxymethyl)-4-(4-(3,4,5-trifluorophenyl)-1H-1,2,3-triazol-1-yl)-1-oxa-8-azaspiro[5.5]undecane-3,5-diol] | < 25 | – | –
17 | OC[C@H]1O[C@@]2(CCCN(c3cccc(Cl)c3)C2)[C@H](O)[C@@H](n2cc(-c3cc(F)c(F)c(F)c3)nn2)[C@H]1O [Compound A223, (2R,3R,4S,5R,6R)-8-(3-chlorophenyl)-2-(hydroxymethyl)-4-(4-(3,4,5-trifluorophenyl)-1H-1,2,3-triazol-1-yl)-1-oxa-8-azaspiro[5.5]undecane-3,5-diol] | < 25 | – | –
18 | OC[C@H]1O[C@@]2(CCCN(c3ccc(Cl)cc3)C2)[C@H](O)[C@@H](n2cc(-c3cc(F)c(F)c(F)c3)nn2)[C@H]1O [Compound A224, (2R,3R,4S,5R,6R)-8-(4-chlorophenyl)-2-(hydroxymethyl)-4-(4-(3,4,5-trifluorophenyl)-1H-1,2,3-triazol-1-yl)-1-oxa-8-azaspiro[5.5]undecane-3,5-diol] | < 25 | 24.2 | –
19 | OC[C@H]1O[C@@]2(CCCN(c3cccs3)C2)[C@H](O)[C@@H](n2cc(-c3cc(F)c(F)c(F)c3)nn2)[C@H]1O [Compound A225, (2R,3R,4S,5R,6R)-2-(hydroxymethyl)-8-(thiophen-2-yl)-4-(4-(3,4,5-trifluorophenyl)-1H-1,2,3-triazol-1-yl)-1-oxa-8-azaspiro[5.5]undecane-3,5-diol] | < 25 | – | –
20 | OC[C@H]1O[C@@]2(CCCN(c3ccncn3)C2)[C@H](O)[C@@H](n2cc(-c3cc(F)c(F)c(F)c3)nn2)[C@H]1O [Compound A226, (2R,3R,4S,5R,6R)-2-(hydroxymethyl)-8-(pyrimidin-4-yl)-4-(4-(3,4,5-trifluorophenyl)-1H-1,2,3-triazol-1-yl)-1-oxa-8-azaspiro[5.5]undecane-3,5-diol] | – | – | < 25
21 | O=C(c1ccc(Cl)cc1)N1CCC[C@]2(C1)O[C@H](CO)[C@H](O)[C@H](n1cc(-c3cc(F)c(F)c(F)c3)nn1)[C@H]2O [Compound A227, (4-chlorophenyl)((2R,3R,4S,5R,6R)-3,5-dihydroxy-2-(hydroxymethyl)-4-(4-(3,4,5-trifluorophenyl)-1H-1,2,3-triazol-1-yl)-1-oxa-8-azaspiro[5.5]undecan-8-yl)methanone] | < 25 | – | –
22 | Cc1cc(C(=O)N[C@@H]2CCO[C@]23O[C@H](CO)[C@H](O)[C@H](n2cc(-c4cc(F)c(F)c(F)c4)nn2)[C@H]3O)c2cc(F)ccc2n1 [Compound A228, N-((4R,5S,7R,8R,9S,10R)-8,10-dihydroxy-7-(hydroxymethyl)-9-(4-(3,4,5-trifluorophenyl)-1H-1,2,3-triazol-1-yl)-1,6-dioxaspiro[4.5]decan-4-yl)-6-fluoro-2-methylquinoline-4-carboxamide] | > 75 | – | –
